Legend:
[1] = target: T1, human adenosine A2A receptors (Homo sapiens, UniProt P29274); assay: Adenosine receptor binding: binding affinities at hA2A receptors ([3H]CGS-21680 displacement); details: Table 1; [3H]CGS-21680 displacement, HEK-293 membranes; read-out: Binding Affinity hA2A-Ki
T1 construct: host or cells: HEK-293
Procedure: Adenosine Receptor Binding: Binding Affinities at hA2A Receptors
(§1) The resultant homogenate was kept for immediate use in the binding assay. Binding assays were performed in a total volume of 250 μL, containing [^3H]-CGS21680 (20.0 nM), membranes and additional drugs. Total binding was determined using drug dilution buffer (50 mM Tris-HCl pH 7.5, 10 mM MgCl2, 5% DMSO). Non-specific binding was determined using 300 μM CHA. […] Filters were left to dry overnight, and Microscint-0 scintillation fluid was then added to the filters. The filters were then left for at least 2 hours before the radioactivity was assessed using a Canberra Packard TopCount microplate scintillation counter.
To determine the free ligand concentration, three vials were counted with 25 μL of [^3H]CGS21680 containing 4 mL of Ultima-Gold MV scintillant on a Beckman LS6500 multi-purpose scintillation counter.
(§2) Data was analysed using a 4 parameter logistical equation and non-linear regression which yields affinity constants (pIC50), and slope parameters:
(§3) [formula] where E is the quantity of binding and [A] is the competitor concentration. The Ki is then determined using the Cheng-Prusoff equation: […]

hA2B receptors = target: T2, hA2B receptors (Homo sapiens, UniProt P29275); assay: Adenosine receptor binding: binding affinities at hA2B receptors ([3H]-ZM241385 displacement); details: Table 1; for Ki: [3H]-ZM241385 displacement, HEK-293 membranes, read-out: Binding Affinity hA2B-Ki; for Binding Selectivity A2b/A2a: ratio of Ki values
T2 construct: host or cells: HEK-293
T2 sequence (P29275 1-332): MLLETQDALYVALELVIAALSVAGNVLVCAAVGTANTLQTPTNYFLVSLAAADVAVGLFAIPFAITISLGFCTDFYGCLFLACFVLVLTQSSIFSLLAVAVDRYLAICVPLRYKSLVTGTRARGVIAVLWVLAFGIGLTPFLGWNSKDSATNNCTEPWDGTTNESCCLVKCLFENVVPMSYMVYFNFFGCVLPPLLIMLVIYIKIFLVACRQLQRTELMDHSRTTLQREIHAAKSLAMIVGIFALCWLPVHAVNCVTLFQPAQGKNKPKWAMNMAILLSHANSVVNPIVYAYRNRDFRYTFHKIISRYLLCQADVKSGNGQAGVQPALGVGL

[2] = tested on: haloperidol-induced deficits in locomotor activity in mice; assay: Haloperidol-induced hypolocomotion model (HaloLMA); assay type: in vivo; details: female TO mice, intraperitoneal, haloperidol 0.2 mg/kg
Source text: Evaluation of Potential Anti-Parkinsonian Activity In Vivo: Haloperidol-Induced Hypolocomotion Model
This approach is also considered a valid method for screening drugs with potential antiparkinsonian effects. Thus, the ability of novel adenosine antagonists to block haloperidol-induced deficits in locomotor activity in mice can be used to assess both in vivo and potential antiparkinsonian efficacy.
Female TO mice (25-30 g) are used for all experiments. Animals are housed in groups of 8 (cage size-40 cm (width) by 40 cm (length) by 20 cm (height)) under 12 hour light/dark cycle (lights on 08:00), in a temperature (20±2° C.) and humidity (55±15%) controlled environment. Animals have free access to food and water, and are allowed at least 7 days to acclimatize after delivery before experimental use.
Liquid injectable haloperidol (e.g., 1 mL Serenance ampoules from Baker Norton, Harlow, Essex, each containing haloperidol BP 5 mg) are diluted to a final concentration of 0.02 mg/mL using saline. Test compounds are typically prepared as aqueous suspensions in 8% Tween. All compounds are administered intraperitoneally in a volume of 10 mL/kg.
1.5 hours before testing, mice are administered 0.2 mg/kg haloperidol, a dose that reduces baseline locomotor activity by at least 50%. Test substances are typically administered 5-60 minutes prior to testing. The animals are then placed individually into clean, clear polycarbonate cages (20 cm (width) by 40 cm (length) by 20 cm (height), with a flat perforated, Perspex lid). Horizontal locomotor activity is determined by placing the cages within a frame containing a 3 by 6 array of photocells linked to a computer, which tabulates beam breaks. Mice are left undisturbed to explore for 1 hour, and the number of beams breaks made during this period serves as a record of locomotor activity which is compared with data for control animals for statistically significant differences.
A number of the exemplified compounds of the present invention were tested in this assay and the results obtained are shown in Table 3, below.

[3] = target: T3, human adenosine A3 receptors (Homo sapiens, UniProt P0DMS8); assay: Adenosine receptor binding: binding affinities at hA3 receptors ([125I]-AB MECA displacement); details: Table 1; for Ki: [125I]-AB MECA displacement, CHO-K1 membranes, read-out: Binding Affinity hA3-Ki; for Binding Selectivity A3/A2a: ratio of Ki values
T3 construct: expressed in transfected cells; host or cells: CHO-K1
T3 sequence (P0DMS8 1-318): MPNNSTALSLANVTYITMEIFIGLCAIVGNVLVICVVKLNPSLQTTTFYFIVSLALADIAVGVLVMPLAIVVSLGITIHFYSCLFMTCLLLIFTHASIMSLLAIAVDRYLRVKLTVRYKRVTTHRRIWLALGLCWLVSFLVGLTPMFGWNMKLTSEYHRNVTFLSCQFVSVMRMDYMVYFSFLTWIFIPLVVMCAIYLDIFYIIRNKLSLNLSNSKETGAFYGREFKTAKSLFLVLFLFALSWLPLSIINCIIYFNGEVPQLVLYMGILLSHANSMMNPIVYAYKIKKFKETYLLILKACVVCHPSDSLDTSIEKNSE
Procedure: [formula] Adenosine Receptor Binding: Binding Affinities at hA3 Receptors
The resultant homogenate was kept for immediate use in the binding assay.
Total binding was determined using drug dilution buffer (50 mM Tris-HCl pH 7.5, 10 mM MgCl2, 5% DMSO). Non-specific binding was determined using 10 μM IB-MECA. […] Filters were left to dry overnight, and Microscint-0 scintillation fluid was then added to the filters. The filters were then left for at least 2 hours before the radioactivity was assessed using a Canberra Packard TopCount microplate scintillation counter.
as §2, §3

[4] = target: T4, human adenosine A1 receptors (Homo sapiens, UniProt P30542); assay: Adenosine receptor binding: binding affinities at hA1 receptors ([3H]DPCPX displacement); details: Table 1; for Ki: [3H]DPCPX displacement, CHO-K1 membranes, read-out: Binding Affinity hA1-Ki; for Binding Selectivity A1/A2a: ratio of Ki values
T4 construct: expressed in transfected cells; host or cells: CHO-K1
T4 sequence (P30542 1-326): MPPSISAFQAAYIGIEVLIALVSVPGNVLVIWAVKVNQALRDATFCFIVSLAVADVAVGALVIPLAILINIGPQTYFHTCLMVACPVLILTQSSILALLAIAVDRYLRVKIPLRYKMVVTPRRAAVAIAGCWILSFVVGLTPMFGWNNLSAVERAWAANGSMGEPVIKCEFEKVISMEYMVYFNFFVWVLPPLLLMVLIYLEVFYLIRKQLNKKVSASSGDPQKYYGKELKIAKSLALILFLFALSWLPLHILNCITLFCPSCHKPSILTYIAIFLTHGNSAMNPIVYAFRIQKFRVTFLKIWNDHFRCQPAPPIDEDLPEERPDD
Procedure: Adenosine Receptor Binding: Binding Affinities at hA1 Receptors
The resultant homogenate was kept for immediate use in the binding.
as §1, with “Binding” for “The resultant homogenate was kept for immediate use in the binding assay. Binding”, “[^3H]-DPCPX (3.0” for “[^3H]-CGS21680 (20.0”, “pH:7.5,” for “pH 7.5,”, “N6-cyclohexyladenosine (CHA).” for “CHA.”
To determine the free ligand concentration, three vials were counted with 25 μL of [^3H]DPCPX containing 4 mL of Ultima-Gold MV scintillant on a Beckman LS6500 multi-purpose scintillation counter.
as §2, §3

T1 sequence (P29274 whole entry): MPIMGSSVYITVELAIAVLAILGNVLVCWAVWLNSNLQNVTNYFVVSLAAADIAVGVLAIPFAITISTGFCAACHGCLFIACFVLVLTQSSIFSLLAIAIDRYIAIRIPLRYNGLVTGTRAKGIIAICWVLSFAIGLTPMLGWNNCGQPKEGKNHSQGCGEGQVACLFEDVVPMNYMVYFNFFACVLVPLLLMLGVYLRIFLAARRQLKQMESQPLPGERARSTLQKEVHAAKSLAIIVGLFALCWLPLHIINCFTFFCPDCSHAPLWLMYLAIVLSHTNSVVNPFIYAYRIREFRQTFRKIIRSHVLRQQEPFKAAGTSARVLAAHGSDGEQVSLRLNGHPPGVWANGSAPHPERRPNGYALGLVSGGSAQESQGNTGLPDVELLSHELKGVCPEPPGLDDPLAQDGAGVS

| Structure (SMILES) | Ki [1] [nM] | Ki (hA2B receptors) [nM] | Binding Selectivity A2b/A2a (hA2B receptors) | In Vivo activity HaloLMA MED [2] [mg/kg] | Ki [3] [nM] | Binding Selectivity A3/A2a [3] | Ki [4] [nM] | Binding Selectivity A1/A2a [4] |
| --- | --- | --- | --- | --- | --- | --- | --- | --- |
| Cc1ccc(-c2nc(N)nc3c2nnn3Cc2cccc(C(C)(C)O)n2)o1 [Example 2, 7-(5-methylfuran-2-yl)-3-(6-[1-hydroxy-1-methylethyl]pyrid-2-ylmethyl)-3H-[1,2,3]triazolo[4,5-d]pyrimidin-5-amine] | 1.9 | 2190 | 1165 | 1 | 706 | 375 | 360 | 192 |
| Cc1ccc(-c2nc(N)nc3c2nnn3Cc2cccc(C3(O)CCCC3)n2)o1 [Example 3, 7-(5-methylfuran-2-yl)-3-(6-[1-hydroxy-1-cyclopentyl]pyrid-2-ylmethyl)-3H-[1,2,3]triazolo[4,5-d]pyrimidin-5-amine] | 1.6 | 976 | 602 | 1 | 754 | 465 | 366 | 226 |
| Cc1ccc(-c2nc(N)nc3c2nnn3Cc2cccc(C3(O)CCCCC3)n2)o1 [Example 4, 7-(5-methylfuran-2-yl)-3-(6-[1-hydroxy-1-cyclohexyl]pyrid-2-ylmethyl)-3H-[1,2,3]triazolo[4,5-d]pyrimidin-5-amine] | 3.1 | 1130 | 366 | 3 | 1640 | 528 | 196 | 63 |
| Cc1ccc(-c2nc(N)nc3c2nnn3Cc2cccc(C3(O)CCOCC3)n2)o1 [Example 5, 7-(5-methylfuran-2-yl)-3-(6-[4-hydroxyetrahydropyran-4-yl]pyrid-2-ylmethyl)-3H-[1,2,3]triazolo[4,5-d]pyrimidin-5-amine] | 4.3 | 4200 | 980 | 3 |  | 1989 | 853 | 199 |
| Cc1ccc(-c2nc(N)nc3c2nnn3Cc2cccc(C3(O)CCC3)n2)o1 [Example 6] | 1.1 | 1370 | 1216 | 1 | 1500 | 1326 | 354 | 313 |
| CC(C)(O)c1cccc(Cn2nnc3c(-c4ccccc4)nc(N)nc32)n1 [Example 8, 7-phenyl-3-(6-[1-hydroxy-1-methylethyl]pyrid-2-ylmethyl)-3H-[1,2,3]triazolo[4,5-d]pyrimidin-5-amine] | 4.8 | 1300 | 269 | 3 | 3760 | 780 | 214 | 44 |
| Nc1nc(-c2ccccc2)c2nnn(Cc3cccc(C4(O)CCCC4)n3)c2n1 [Example 9, 7-phenyl-3-(6-[1-hydroxy-1-cyclopentyl]pyrid-2-ylmethyl)-3H-[1,2,3]triazolo[4,5-d]pyrimidin-5-amine] | 9.8 | 3410 | 347 | 10 |  |  | 706 | 72 |
| COCc1cccc(Cn2nnc3c(-c4cccc(OC)c4)nc(N)nc32)n1 [Example 18, 7-(3-methoxyphenyl)-3-(6-[methoxymethyl]pyrid-2-ylmethyl)-3H-[1,2,3]triazolo[4,5-d]pyrimidin-5-amine] |  |  |  | <30 |  |  |  |  |
| COCc1cccc(Cn2nnc3c(-c4cccc(C#N)c4)nc(N)nc32)n1 [Example 24, 7-(3-cyanophenyl)-3-(6-[methoxymethyl]pyrid-2-ylmethyl)-3H-[1,2,3]triazolo[4,5-d]pyrimidin-5-amine] |  |  |  | 10 |  |  |  |  |
| Cc1csc(-c2nc(N)nc3c2nnn3Cc2cccc(CO[C@H]3CCOC3)n2)n1 [Example 25, S-7-(4-methylthiazol-2-yl)-3-(6-[tetrahydrofuran-3-yl]oxymethylpyrid-2-ylmethyl)-3H-[1,2,3]triazolo[4,5-d]pyrimidin-5-amine] |  |  |  | 3 |  |  |  |  |
| COC(C)(C)OCc1cccc(Cn2nnc3c(-c4ccc(C)o4)nc(N)nc32)n1 [Example 36, 7-(5-methylfuran-2-yl)-3-(6-[1-methoxy-1-methylethyl]oxymethylpyrid-2-ylmethyl)-3H-[1,2,3]triazolo[4,5-d]pyrimidin-5-amine] | 4.5 |  |  | 1 to 3 | 939 | 208 | 422 | 93 |
| Nc1nc(-c2nccs2)c2nnn(Cc3cccc(CO[C@H]4CCOC4)n3)c2n1 [Example 38, S-7-(thiazol-2-yl)-3-(6-[tetrahydrofuran-3-yl]oxymethylpyrid-2-ylmethyl)-3H-[1,2,3]triazolo[4,5-d]pyrimidin-5-amine] | 28.4 | 2980 | 105 | 10 |  |  | 2090 | 73 |

— patent US11466019B2, “Triazolo[4,5-d] pyramidine derivatives and their use as purine receptor antagonists” (Vernalis (R&D) Limited, priority 2008, dated 2022)
